In publication PMC8550792, “Evolution of kinase polypharmacology across HSP90 drug discovery” (Cell Chemical Biology, 2021):

Experiments:
Assay in all cases: biochemical
Format in all cases: biochemical
[1] = molecular target: T1, 382 unique human kinases (Homo sapiens, UniProt O43293); settings: kinase ZIPK/DAPK3, compound 10 uM; for remaining activity at 10 µM: read-out: % Enzyme Activity (relative to DMSO controls)
T1 construct: purchased Reaction Biology (HotSpot contract assay)

[2] = molecular target: T2, 382 unique human kinases (Homo sapiens, UniProt P08922); settings: ROS/ROS1, 10 uM; for remaining activity at 10 µM: read-out: % Enzyme Activity (relative to DMSO controls)
T2 construct: purchased Reaction Biology (HotSpot contract assay)

[3] = molecular target: T3, 382 unique human kinases (Homo sapiens, UniProt P22607, V555M); settings: FGFR3 (V555M), 10 uM; for remaining activity at 10 µM: read-out: % Enzyme Activity (relative to DMSO controls)
T3 construct: purchased Reaction Biology (HotSpot contract assay)

[4] = molecular target: T4, 382 unique human kinases (Homo sapiens, UniProt P31751); settings: kinase AKT2, compound 10 uM; for remaining activity at 10 µM: read-out: % Enzyme Activity (relative to DMSO controls)
T4 construct: purchased Reaction Biology (HotSpot contract assay)

[5] = molecular target: T5, 382 unique human kinases (Homo sapiens, UniProt P42679); settings: kinase CTK/MATK, compound 10 uM; for remaining activity at 10 µM: read-out: % Enzyme Activity (relative to DMSO controls)
T5 construct: purchased Reaction Biology (HotSpot contract assay)
T5 sequence (P42679 1-507): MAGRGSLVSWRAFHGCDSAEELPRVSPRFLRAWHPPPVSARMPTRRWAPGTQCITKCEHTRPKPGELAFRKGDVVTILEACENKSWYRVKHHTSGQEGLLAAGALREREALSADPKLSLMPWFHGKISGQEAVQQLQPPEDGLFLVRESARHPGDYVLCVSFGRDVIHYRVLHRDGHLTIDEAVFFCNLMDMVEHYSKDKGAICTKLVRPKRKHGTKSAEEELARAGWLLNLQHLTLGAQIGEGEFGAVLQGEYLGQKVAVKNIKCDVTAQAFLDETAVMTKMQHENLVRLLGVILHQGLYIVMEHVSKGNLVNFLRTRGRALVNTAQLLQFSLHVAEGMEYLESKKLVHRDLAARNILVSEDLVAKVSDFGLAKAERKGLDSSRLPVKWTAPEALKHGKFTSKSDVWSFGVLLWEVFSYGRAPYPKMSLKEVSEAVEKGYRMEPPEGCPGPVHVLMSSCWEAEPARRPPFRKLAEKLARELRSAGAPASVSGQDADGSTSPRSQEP

[6] = molecular target: T6, 382 unique human kinases (Homo sapiens, UniProt Q02156); settings: kinase PKCepsilon, compound 10 uM; for remaining activity at 10 µM: read-out: % Enzyme Activity (relative to DMSO controls)
T6 construct: purchased Reaction Biology (HotSpot contract assay)
T6 sequence (Q02156 1-737): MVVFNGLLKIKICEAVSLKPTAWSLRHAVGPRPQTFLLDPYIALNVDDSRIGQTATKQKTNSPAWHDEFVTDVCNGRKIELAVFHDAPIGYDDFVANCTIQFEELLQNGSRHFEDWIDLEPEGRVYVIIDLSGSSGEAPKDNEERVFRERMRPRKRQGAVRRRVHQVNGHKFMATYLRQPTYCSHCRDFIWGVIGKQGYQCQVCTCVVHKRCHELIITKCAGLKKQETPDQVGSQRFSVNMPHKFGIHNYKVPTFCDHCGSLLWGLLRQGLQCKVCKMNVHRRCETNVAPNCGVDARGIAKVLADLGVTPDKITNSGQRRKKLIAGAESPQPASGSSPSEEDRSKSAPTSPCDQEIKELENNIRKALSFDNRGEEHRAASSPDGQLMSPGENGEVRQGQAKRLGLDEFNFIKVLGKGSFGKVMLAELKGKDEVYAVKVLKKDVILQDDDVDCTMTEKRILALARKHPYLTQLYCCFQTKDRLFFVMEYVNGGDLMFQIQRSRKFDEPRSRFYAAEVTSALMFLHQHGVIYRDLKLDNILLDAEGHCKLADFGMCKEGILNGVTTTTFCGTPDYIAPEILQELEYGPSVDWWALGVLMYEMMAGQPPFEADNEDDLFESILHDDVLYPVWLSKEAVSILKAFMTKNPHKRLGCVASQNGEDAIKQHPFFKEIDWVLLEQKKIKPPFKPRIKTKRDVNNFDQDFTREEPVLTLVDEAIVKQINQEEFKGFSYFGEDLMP

[7] = molecular target: T7, 382 unique human kinases (Homo sapiens, UniProt Q02750); settings: kinase MEK1, compound 10 uM; for remaining activity at 10 µM: read-out: % Enzyme Activity (relative to DMSO controls)
T7 construct: purchased Reaction Biology (HotSpot contract assay)

[8] = molecular target: T8, 382 unique human kinases (Homo sapiens, UniProt Q86Y07); settings: kinase VRK2, compound 10 uM; for remaining activity at 10 µM: read-out: % Enzyme Activity (relative to DMSO controls)
T8 construct: purchased Reaction Biology (HotSpot contract assay)

[9] = molecular target: T9, 382 unique human kinases (Homo sapiens, UniProt Q9UBS0); settings: kinase p70S6Kb/RPS6KB2, compound 10 uM; for remaining activity at 10 µM: read-out: % Enzyme Activity (relative to DMSO controls)
T9 construct: purchased Reaction Biology (HotSpot contract assay)

[10] = molecular target: T10, 382 unique human kinases (Homo sapiens, UniProt P00533, DEL746-750/T790M); settings: EGFR (d746-750/T790M), 10 uM; for remaining activity at 10 µM: read-out: % Enzyme Activity (relative to DMSO controls)
T10 construct: purchased Reaction Biology (HotSpot contract assay)

[11] = molecular target: T11, 382 unique human kinases (Homo sapiens, UniProt P08581, Y1230A); settings: c-MET (Y1230A), 10 uM; for remaining activity at 10 µM: read-out: % Enzyme Activity (relative to DMSO controls)
T11 construct: purchased Reaction Biology (HotSpot contract assay)

[12] = molecular target: T12, 382 unique human kinases (Homo sapiens, UniProt P31751, E17K); settings: AKT2 (E17K), 10 uM; for remaining activity at 10 µM: read-out: % Enzyme Activity (relative to DMSO controls)
T12 construct: purchased Reaction Biology (HotSpot contract assay)

[13] = molecular target: T13, 382 unique human kinases (Homo sapiens, UniProt P43405); settings: SYK, 10 uM; for remaining activity at 10 µM: read-out: % Enzyme Activity (relative to DMSO controls)
T13 construct: purchased Reaction Biology (HotSpot contract assay)

T1 sequence (O43293 whole entry): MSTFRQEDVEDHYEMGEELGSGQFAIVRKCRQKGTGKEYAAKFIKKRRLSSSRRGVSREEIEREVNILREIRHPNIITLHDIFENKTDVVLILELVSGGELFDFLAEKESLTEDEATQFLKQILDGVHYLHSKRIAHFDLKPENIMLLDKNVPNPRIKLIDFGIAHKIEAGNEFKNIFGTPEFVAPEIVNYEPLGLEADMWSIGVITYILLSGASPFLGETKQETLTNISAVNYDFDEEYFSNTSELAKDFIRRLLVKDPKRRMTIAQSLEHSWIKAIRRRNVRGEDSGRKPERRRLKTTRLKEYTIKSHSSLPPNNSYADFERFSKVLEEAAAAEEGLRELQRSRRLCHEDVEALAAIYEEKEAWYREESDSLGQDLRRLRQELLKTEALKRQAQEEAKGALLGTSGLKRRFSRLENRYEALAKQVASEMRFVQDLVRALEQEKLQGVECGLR
T7 sequence (Q02750 whole entry): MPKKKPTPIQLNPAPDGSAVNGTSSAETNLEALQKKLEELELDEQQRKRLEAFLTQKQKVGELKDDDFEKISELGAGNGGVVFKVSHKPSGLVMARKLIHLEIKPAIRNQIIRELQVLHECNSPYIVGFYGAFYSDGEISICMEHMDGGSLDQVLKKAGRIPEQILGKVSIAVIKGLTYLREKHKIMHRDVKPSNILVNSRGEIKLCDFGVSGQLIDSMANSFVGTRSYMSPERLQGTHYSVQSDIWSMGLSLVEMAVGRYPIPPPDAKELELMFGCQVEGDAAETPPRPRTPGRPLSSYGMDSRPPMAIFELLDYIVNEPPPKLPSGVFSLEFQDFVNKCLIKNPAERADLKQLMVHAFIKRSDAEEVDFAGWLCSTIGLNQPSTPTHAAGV
T12 sequence (P31751 whole entry E17K): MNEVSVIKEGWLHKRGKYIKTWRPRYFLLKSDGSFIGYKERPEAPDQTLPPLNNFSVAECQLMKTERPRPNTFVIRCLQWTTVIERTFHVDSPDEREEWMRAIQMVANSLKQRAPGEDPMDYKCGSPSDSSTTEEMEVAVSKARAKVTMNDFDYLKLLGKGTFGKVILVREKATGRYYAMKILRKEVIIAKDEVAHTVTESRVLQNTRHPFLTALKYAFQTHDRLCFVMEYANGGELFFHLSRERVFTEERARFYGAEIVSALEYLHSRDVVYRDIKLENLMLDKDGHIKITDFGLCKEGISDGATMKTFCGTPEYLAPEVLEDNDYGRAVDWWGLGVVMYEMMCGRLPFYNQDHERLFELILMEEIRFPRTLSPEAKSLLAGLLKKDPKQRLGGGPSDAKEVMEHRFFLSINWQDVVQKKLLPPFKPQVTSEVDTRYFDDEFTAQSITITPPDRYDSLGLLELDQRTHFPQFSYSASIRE
T9 sequence (Q9UBS0 whole entry): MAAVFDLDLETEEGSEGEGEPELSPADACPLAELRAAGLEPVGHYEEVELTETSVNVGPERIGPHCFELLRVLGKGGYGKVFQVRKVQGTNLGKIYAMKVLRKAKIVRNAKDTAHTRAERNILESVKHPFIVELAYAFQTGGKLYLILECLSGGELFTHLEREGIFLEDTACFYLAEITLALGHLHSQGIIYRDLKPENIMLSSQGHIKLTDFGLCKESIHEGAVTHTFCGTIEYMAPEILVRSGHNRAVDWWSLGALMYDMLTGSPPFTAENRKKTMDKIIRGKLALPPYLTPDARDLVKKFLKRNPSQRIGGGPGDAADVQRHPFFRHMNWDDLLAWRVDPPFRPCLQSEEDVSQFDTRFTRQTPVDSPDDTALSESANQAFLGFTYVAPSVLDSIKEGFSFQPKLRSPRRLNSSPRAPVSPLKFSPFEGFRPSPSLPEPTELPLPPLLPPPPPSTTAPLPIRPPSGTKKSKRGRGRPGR
T4 sequence (P31751 whole entry): as the sequence (P31751 whole entry E17K) above, with K17E counted along it
T8 sequence (Q86Y07 whole entry): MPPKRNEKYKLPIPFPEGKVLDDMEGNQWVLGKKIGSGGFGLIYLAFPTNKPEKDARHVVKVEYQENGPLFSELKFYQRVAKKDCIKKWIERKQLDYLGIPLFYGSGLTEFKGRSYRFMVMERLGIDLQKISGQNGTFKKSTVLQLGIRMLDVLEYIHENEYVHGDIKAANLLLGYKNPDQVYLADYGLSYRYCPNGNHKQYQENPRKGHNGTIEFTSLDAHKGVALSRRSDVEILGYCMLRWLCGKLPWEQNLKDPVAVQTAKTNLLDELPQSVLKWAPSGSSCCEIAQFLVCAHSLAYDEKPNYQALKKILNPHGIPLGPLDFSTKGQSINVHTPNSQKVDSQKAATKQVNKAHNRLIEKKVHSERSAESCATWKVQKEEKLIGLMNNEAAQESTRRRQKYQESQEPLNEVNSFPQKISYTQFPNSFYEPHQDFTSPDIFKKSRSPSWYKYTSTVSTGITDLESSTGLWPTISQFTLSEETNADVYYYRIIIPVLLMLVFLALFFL
T2 sequence (P08922 28-2347): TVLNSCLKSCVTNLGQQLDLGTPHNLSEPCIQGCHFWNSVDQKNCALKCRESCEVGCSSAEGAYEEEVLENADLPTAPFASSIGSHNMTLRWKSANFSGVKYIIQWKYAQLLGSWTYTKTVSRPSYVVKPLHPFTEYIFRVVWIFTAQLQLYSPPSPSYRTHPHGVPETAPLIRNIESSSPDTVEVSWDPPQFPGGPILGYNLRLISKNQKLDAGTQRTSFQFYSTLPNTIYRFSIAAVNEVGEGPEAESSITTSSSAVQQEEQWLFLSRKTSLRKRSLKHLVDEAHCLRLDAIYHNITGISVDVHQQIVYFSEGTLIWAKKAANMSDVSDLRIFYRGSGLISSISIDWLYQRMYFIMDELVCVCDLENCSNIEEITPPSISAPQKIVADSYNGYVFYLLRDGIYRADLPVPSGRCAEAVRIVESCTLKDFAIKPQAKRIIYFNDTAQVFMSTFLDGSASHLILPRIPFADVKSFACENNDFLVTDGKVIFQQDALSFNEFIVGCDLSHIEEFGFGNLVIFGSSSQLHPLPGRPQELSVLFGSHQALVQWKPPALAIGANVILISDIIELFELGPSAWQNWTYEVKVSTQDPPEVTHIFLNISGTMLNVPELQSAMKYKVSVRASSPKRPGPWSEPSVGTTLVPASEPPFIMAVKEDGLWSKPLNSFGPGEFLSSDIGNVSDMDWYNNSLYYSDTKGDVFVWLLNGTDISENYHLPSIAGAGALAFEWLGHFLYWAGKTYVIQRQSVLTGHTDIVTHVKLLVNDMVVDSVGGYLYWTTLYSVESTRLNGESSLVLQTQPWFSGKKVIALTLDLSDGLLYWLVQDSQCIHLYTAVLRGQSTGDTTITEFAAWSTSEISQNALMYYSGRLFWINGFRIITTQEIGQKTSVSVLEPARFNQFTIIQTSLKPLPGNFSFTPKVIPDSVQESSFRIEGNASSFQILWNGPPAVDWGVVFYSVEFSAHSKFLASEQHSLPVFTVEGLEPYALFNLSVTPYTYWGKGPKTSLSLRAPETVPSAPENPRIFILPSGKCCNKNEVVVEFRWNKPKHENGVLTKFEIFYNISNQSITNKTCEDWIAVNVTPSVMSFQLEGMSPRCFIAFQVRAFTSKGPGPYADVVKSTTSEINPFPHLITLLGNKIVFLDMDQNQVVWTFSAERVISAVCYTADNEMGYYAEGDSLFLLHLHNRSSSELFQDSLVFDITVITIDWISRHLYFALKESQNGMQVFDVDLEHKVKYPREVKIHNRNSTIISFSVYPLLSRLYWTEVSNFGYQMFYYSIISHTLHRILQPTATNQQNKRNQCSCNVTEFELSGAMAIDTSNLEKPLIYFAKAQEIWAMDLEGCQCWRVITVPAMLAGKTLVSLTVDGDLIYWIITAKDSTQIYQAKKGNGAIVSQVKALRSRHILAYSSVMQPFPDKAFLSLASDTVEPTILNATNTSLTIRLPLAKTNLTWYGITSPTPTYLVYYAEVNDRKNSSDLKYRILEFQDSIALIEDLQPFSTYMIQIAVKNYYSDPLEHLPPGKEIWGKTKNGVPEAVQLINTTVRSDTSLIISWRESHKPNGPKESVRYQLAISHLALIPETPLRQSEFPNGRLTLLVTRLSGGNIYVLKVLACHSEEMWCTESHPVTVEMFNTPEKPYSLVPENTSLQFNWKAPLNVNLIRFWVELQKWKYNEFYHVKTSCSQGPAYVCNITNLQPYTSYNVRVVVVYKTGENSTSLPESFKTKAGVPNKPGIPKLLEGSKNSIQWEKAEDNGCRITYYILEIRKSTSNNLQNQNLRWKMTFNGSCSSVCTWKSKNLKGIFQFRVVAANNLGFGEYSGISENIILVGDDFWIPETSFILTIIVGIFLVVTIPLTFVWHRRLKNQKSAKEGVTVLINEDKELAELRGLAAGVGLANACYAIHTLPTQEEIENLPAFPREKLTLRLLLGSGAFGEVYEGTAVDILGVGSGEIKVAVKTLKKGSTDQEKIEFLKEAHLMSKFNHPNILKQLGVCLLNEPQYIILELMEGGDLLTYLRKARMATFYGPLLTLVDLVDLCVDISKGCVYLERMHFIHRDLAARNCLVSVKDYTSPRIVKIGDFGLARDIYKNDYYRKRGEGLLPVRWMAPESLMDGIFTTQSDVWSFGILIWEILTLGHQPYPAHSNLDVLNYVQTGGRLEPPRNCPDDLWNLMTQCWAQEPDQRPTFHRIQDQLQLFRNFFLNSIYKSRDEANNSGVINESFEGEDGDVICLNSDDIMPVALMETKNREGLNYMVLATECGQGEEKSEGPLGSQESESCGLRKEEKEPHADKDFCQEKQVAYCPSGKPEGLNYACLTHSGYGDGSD

SMILES | remaining activity at 10 µM [1] | remaining activity at 10 µM [2] | remaining activity at 10 µM [3] | remaining activity at 10 µM [4] | remaining activity at 10 µM [5] | remaining activity at 10 µM [6] | remaining activity at 10 µM [7] | remaining activity at 10 µM [8] | remaining activity at 10 µM [9] | remaining activity at 10 µM [10] | remaining activity at 10 µM [11] | remaining activity at 10 µM [12] | remaining activity at 10 µM [13] | other results
CC(C)c1cc(-c2n[nH]c(=O)n2-c2ccc3c(ccn3C)c2)c(O)cc1O [Ganetespib (STA9090)] | 89.8% | 70.2% | 65.2% | 83.9% | 80% | 87% | 90.3% | 91.2% | 96.6% |  |  |  |  | 
CC(C)c1cc(-c2n[nH]c(=O)n2-c2ccc3c(ccn3C)c2)c(O)cc1O [Ganetespib] |  |  |  |  |  |  |  |  |  | 118% | 117% | 108% | 94% | 
CCNC(=O)c1noc(-c2cc(C(C)C)c(O)cc2O)c1-c1ccc(CN2CCOCC2)cc1 [Luminespib (AUY-922)] | 98.6% | 90.8% | 125% | 97.3% | 83.5% | 107% | 95.8% | 102% | 113% |  |  |  |  | % Enzyme Activity (relative to DMSO controls) [1]: 97.96%; % Enzyme Activity (relative to DMSO controls) [2]: 89.10%; % Enzyme Activity (relative to DMSO controls) [3]: 124.56%; % Enzyme Activity (relative to DMSO controls) [4]: 96.69%; % Enzyme Activity (relative to DMSO controls) [5]: 80.99%; % Enzyme Activity (relative to DMSO controls) [6]: 103.78%; % Enzyme Activity (relative to DMSO controls) [7]: 95.75%; % Enzyme Activity (relative to DMSO controls) [8]: 100.26%; % Enzyme Activity (relative to DMSO controls) [9]: 108.19%
CCNC(=O)c1noc(-c2cc(C(C)C)c(O)cc2O)c1-c1ccc(CN2CCOCC2)cc1 [Luminespib] |  |  |  |  |  |  |  |  |  | 100% | 101% | 98% | 102% | % Enzyme Activity (relative to DMSO controls) [10]: 99.12%; % Enzyme Activity (relative to DMSO controls) [11]: 98.90%; % Enzyme Activity (relative to DMSO controls) [12]: 96.63%; % Enzyme Activity (relative to DMSO controls) [13]: 101.25%
